One test concerns the target T1, human AR (Homo sapiens, UniProt P10275).
T1 construct: expressed in transfected cells; host or cells: CV-1 cells (African green monkey kidney fibroblasts)
T1 sequence (P10275 1-920): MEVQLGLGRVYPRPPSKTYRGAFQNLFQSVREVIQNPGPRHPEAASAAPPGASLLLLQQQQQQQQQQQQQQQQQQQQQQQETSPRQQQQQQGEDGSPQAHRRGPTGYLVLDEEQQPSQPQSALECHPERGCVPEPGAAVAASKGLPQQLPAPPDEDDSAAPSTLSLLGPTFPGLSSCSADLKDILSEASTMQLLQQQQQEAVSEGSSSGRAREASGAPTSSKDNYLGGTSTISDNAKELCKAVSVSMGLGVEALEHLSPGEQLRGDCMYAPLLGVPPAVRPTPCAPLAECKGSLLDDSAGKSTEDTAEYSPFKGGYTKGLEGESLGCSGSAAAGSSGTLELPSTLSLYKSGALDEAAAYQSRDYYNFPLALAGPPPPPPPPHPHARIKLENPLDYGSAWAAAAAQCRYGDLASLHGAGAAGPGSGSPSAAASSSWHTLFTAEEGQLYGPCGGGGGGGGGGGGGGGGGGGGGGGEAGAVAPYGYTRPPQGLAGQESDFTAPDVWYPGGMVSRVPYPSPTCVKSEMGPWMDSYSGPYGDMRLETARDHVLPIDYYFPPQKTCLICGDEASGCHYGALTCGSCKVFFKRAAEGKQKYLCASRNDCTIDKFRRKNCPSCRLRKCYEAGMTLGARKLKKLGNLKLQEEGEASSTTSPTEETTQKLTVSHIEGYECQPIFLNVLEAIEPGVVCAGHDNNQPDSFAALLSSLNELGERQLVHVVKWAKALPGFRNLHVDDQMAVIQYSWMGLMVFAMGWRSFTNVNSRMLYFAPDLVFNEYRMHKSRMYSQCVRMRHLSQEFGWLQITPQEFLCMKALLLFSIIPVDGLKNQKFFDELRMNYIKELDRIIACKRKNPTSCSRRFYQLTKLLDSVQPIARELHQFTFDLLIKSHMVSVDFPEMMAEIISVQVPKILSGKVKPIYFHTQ
The test can be described thus: co-transfection assay, hAR in CV-1 cells (MTV-LUC reporter). In kind it is cell-based. From the text:
The co-transfection assay provides a method for identifying functional agonists and partial agonists that mimic, or antagonists that inhibit, the effect of native hormones and quantifying their activity for responsive IR proteins. In this regard, the co-transfection assay mimics an in vivo system in the laboratory. Importantly, activity in the co-transfection assay correlates very well with known in vivo activity, such that the co-transfection assay functions as a qualitative and quantitative predictor of a tested compounds in vivo pharmacology. , See e.g., T. Berger et al. 41 J. Steroid Biochem. Molec.
(§1) CV-1 cells (African green monkey kidney fibroblasts) were cultured in the presence of Dulbecco's Modified Eagle Medium (DMEM) supplemented with 10% charcoal resin-stripped fetal bovine serum (CH-FBS) then transferred to 96-well microtiter plates one day prior to transfection.
The reporter plasmid, MTV-LUC, contains the cDNA for firefly luciferase (LUC) under control of the mouse mammary tumor virus (MTV) long terminal repeat, a conditional promoter containing an androgen response element. See e.g., Berger et al. supra. In addition, pRS-β-Gal, coding for constitutive expression of E. coli β-galactosidase (β-Gal), was included as an internal control for evaluation of transfection efficiency and compound toxicity.
(§2) Three to four replicates were used for each sample.
(§3) After 40 hours, the cells were washed with PBS, lysed with a Triton X-100-based buffer and assayed for LUC and β-Gal activities using a luminometer or spectrophotometer, respectively. For each replicate, the normalized response (NR) was calculated as: LUC response/β-Gal rate • where β-Gal rate=β-Gal/β-Gal incubation time.

In the next test the target is T2, MR (Homo sapiens, UniProt P08235).
T2 construct: expressed in transfected cells; host or cells: background cell substantially devoid of endogenous IRs (CV-1 described for the co-transfection assay)
T2 sequence (P08235 1-984): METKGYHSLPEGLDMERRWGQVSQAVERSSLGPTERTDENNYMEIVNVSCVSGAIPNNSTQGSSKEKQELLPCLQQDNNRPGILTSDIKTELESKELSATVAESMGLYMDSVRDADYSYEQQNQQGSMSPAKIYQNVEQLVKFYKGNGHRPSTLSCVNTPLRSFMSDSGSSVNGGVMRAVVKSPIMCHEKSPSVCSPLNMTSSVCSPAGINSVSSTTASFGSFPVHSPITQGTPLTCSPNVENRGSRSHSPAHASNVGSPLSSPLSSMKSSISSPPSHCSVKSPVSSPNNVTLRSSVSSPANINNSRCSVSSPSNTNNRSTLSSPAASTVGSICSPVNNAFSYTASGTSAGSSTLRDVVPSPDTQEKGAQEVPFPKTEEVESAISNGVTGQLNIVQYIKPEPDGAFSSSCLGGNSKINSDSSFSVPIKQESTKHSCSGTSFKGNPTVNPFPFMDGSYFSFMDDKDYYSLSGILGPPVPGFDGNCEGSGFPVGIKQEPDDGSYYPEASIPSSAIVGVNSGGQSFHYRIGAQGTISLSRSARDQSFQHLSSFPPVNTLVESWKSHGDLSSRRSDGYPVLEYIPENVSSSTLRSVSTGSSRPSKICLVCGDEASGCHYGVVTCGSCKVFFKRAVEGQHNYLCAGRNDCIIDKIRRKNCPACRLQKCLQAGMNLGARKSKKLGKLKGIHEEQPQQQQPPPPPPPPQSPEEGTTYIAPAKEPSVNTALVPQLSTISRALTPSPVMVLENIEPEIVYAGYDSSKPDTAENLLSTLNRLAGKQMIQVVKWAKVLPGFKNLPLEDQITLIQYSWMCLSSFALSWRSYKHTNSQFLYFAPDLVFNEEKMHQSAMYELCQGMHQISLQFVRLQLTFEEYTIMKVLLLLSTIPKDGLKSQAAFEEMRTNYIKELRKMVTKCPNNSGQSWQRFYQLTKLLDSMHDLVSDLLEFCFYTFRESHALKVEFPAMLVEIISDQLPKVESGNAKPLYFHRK
The experiment in a line: co-transfection assay, MR. In kind it is cell-based. As for the experimental part: as §1, §2, §3

The mark [1] stands for this setting: agonist mode, luciferase production relative to DHT, hAR in CV-1 cells.
Setting [2] is: antagonist mode, maximal inhibition of DHT-induced luciferase production, hAR in CV-1 cells.
Setting [3] is: read-out: AR-wt Potency Antag, antagonist mode, Table 2.

Like-named read-outs stand apart in the source and are kept apart here. A value given as a limit tells only on which side of the number the result lay.

On to `C=CCN1c2ccc3[nH]c(=O)cc(C(F)(F)F)c3c2OC[C@H]1CC` [Compound 114, (3R)-4-Allyl-3-ethyl-2,3,4,7-tetrahydro-10-(trifluoromethyl)-8H-[1,4]oxazino[2,3-f]quinolin-8-one], for which the EC50 – broadly, the concentration needed to bring the measured effect to its halfway point – on human AR was found to be 53 nM. Further, the “AR Agonist CV-1 Cells Efficacy” value at human AR (setting [1]) worked out at 74%. Besides, the “AR Antagonist CV-1 Cells Efficacy” value on human AR (setting [2]) is “na (not active (i.e. efficacy of <20 and potency of >10,000 nM for the cotransfection assay)”. The IC50 at human AR (setting [3]) and on MR was > 10 µM in each case.
Take `CC(C)[C@@H]1COc2c(ccc3[nH]c(=O)cc(C(F)(F)F)c23)N1CC(F)(F)Cl` [Compound 124, (3R)-4-(2-Chloro-2,2-difluoroethyl)-2,3,4,7-tetrahydro-3-isopropyl-10-(trifluoromethyl)-8H-[1,4]oxazino[2,3-f]quinolin-8-one]: on human AR, a half-maximal response (EC50) required 2 nM. For the same compound, at human AR (setting [1]), the “AR Agonist CV-1 Cells Efficacy” value turned out to be 70%. Further, on human AR (setting [2]), the “AR Antagonist CV-1 Cells Efficacy” value is “na (not active (i.e. efficacy of <20 and potency of >10,000 nM for the cotransfection assay)”. Also, the IC50 on human AR (setting [3]) and at MR was > 10 µM each time.
`CC[C@@H]1COc2c(ccc3[nH]c(=O)cc(C(F)(F)F)c23)N1CC(F)(F)F` [Compound 110, (3R)-3-Ethyl-2,3,4,7-tetrahydro-4-(2,2,2-trifluoroethyl)-10-(trifluoromethyl)-8H-[1,4]oxazino[2,3-f]quinolin-8-one]: on human AR, the “AR Agonist CV-1 Cells Efficacy” value is 89%; the “AR Antagonist CV-1 Cells Efficacy” value was “na (key: na: not active (i.e. efficacy of <20 and potency of >10,000 nM for the cotransfection assay)”; the EC50 was 0.6 nM; the IC50 was > 10 µM. Besides, the IC50 on human AR (read-out: AR-wt Potency Antag) is > 10 µM. For the same compound, the IC50 on MR was found to be 1.27 µM.
